Patent US11066369B2, “N-(pyridin-2-yl)pyridine-sulfonamide derivatives and their use in the treatment of disease” (Novartis AG, priority 2016, dated 2021)
Where a name gives a salt, the structure may show the parent alone. Read-outs that look alike come from different tables or passages of the source.

Tests used:
[1] = target: T1, horseradish peroxidase (HRP) tagged delF508-CFTR (Homo sapiens, UniProt P13569, DEL508-508); test: Measurement of delF508-CFTR-HRP surface expression in CFBE41o- cells; assay type: cell-based; details: for Emax: read-out: DelF508-CFTR-HRP Amax %;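 for DelF508-CFTR-HRP Amax %: percent efficacy relative to reference corrector lumacaftor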
T1 construct: expressed in transfected cells
T1 sequence (P13569 with tags, fused parts or gaps DEL508-508): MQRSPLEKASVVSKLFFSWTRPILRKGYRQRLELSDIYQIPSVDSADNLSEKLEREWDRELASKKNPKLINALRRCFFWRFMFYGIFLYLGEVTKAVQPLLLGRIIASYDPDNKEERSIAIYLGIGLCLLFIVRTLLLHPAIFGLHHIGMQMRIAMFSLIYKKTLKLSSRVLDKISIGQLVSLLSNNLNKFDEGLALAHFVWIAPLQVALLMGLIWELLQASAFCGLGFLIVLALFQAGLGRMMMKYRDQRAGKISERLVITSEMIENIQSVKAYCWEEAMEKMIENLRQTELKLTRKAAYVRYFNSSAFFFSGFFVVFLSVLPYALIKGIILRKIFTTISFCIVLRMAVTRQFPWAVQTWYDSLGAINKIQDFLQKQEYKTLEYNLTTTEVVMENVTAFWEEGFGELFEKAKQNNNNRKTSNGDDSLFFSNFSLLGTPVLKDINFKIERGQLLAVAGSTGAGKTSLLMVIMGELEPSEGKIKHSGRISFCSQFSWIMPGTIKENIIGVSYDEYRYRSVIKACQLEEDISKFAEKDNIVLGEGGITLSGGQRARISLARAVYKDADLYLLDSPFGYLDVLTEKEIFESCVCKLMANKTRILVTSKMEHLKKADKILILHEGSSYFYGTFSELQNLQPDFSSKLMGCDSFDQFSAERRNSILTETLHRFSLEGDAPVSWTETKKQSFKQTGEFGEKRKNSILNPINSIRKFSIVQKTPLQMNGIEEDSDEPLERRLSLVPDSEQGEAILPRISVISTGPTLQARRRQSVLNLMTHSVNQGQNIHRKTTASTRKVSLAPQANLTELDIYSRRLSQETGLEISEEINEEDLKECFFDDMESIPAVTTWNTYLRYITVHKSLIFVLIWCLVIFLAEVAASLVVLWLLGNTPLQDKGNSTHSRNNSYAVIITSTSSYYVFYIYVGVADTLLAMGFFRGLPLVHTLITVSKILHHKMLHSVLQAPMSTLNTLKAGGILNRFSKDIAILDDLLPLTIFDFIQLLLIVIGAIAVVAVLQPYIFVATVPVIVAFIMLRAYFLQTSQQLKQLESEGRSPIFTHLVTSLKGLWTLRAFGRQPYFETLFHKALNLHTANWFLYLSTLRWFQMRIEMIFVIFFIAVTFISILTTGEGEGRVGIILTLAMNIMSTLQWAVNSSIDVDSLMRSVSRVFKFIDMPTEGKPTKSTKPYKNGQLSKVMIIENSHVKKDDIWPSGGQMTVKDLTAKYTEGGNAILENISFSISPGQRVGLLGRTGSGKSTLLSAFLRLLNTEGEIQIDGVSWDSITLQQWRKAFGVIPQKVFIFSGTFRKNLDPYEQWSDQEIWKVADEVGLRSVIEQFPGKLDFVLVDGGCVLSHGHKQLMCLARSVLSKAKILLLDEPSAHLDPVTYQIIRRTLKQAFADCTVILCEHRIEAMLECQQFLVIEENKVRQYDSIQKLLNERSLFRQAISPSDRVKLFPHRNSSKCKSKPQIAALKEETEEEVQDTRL
Summary of the method: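 CFBE41o- bronchial epithelial cells stably expressing delF508-CFTR with HRP in the fourth extracellular loop; expression induced 48h with 500 ng/mL doxycycline, then compounds added (top 10 μM, 10-point 3-fold series, ≤0.5% DMSO) for 24h at 37° C. Surface HRP measured by luminescence with cell-impermeant substrate; EC50 from logistic fit of triplicates, plate-normalized to lowest concentration; efficacy also relative to a reference corrector.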

delF508-CFTR = target: T2, delF508-CFTR (Homo sapiens, UniProt P13569, DEL508-508); test: Measurement of delF508-CFTR functional activity in primary human bronchial epithelial cells (HBECs) using Multi-Transepithelial Clamp Circuit (MTECC-24) assay; assay type: cell-based; details: primary CF HBECs; for MTECC24 CFHBEC- Amax %: test compound added 24h before assay plus potentiator, relative to reference combination (2 μM corrector + 0.5 μM potentiator); for EC50: test compound added 24h before assay, in the presence of potentiator, mean of at least two replicates, read-out: MTECC24 CFHBEC- EC50
T2 construct: functional activity of the CFTR channel (Chloride ion transport) in patient derived primary human bronchial epithelial cells; host or cells: patient-derived primary human bronchial epithelial cells (delF508-CFTR)
T2 sequence (P13569 with tags, fused parts or gaps DEL508-508): as above
Summary of the method: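 Patient-derived primary delF508-CFTR HBECs, differentiated at air-liquid interface ~2 weeks, treated basolaterally with compound for 24 h, then apical and basolateral compound in HEPES pH 7.4 assay medium. Equivalent short-circuit current (Ieq) recorded on MTECC-24 with sequential amiloride, forskolin, potentiator and INH-172; normalized to 0.1% DMSO, EC50 from curve fit.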

[2] = delF508-CFTR-HRP surface expression, CFBE41o- cells
[3] = delF508-CFTR-HRP surface expression, CFBE41o- cells, read-out: DelF508-CFTR-HRP EC50

Emax [1, 2] [%] | EC50 [1, 3] [nM] | MTECC24 CFHBEC- Amax % (delF508-CFTR) [%] | EC50 (delF508-CFTR) [nM] | Structure (SMILES) | EC50 [1] [nM] | Emax ([1]; CFBE41o-) [%]
523 | 3200 | 84.7 | 18.5 | Cc1ccccc1-c1nc(NS(=O)(=O)c2cccc(N[C@@H]3CCOC[C@@H]3O)n2)ccc1C(F)(F)F (single isomer, unassigned) [Example 276] | – | –
317 | 3710 | 67.6 | 85.5 | Cc1ccccc1-c1nc(NS(=O)(=O)c2cccc(N3CCN[C@H](C)C3)n2)ccc1C(F)(F)F [Example 167, (R)-6-(3-methylpiperazin-1-yl)-N-(6-(o-tolyl)-5-(trifluoromethyl)pyridin-2-yl)pyridine-2-sulfonamide Hydrochloride] | – | –
592 | 1530 | 87.0 | 5.8 | Cc1cccc(C)c1-c1cc(Cl)cc(NS(=O)(=O)c2cccc(N)n2)n1 [Example 10, 6-amino-N-(4-chloro-6-(2,6-dimethylphenyl)pyridin-2-yl)pyridine-2-sulfonamide] | – | –
222 | 3160 | 55.1 | 10.4 | Cc1ccccc1-c1nc(NS(=O)(=O)c2cccc(N3CCC(C)(C(=O)O)CC3)n2)ccc1Cl [Example 255, 1-(6-(N-(5-chloro-6-(o-tolyl)pyridin-2-yl)sulfamoyl)pyridin-2-yl)-4-methylpiperidine-4-carboxylic Acid] | – | –
256 | 2030 | 71.1 | 51.9 | O=S(=O)(Nc1ccc(Cl)c(-c2ccc(F)cc2Cl)n1)c1cccc(N2CC(O)C2)n1 [Example 214, N-(5-chloro-6-(2-chloro-4-fluorophenyl)pyridin-2-yl)-6-(3-hydroxyazetidin-1-yl)pyridine-2-sulfonamide] | – | –
– | 1520 | 79.6 | 6.7 | CCOC(=O)C1(C)CCN(c2cccc(S(=O)(=O)Nc3ccc(Cl)c(-c4c(C)cccc4C)n3)n2)CC1 [Example 249, ethyl 1-(6-(N-(5-chloro-6-(2,6-dimethylphenyl)pyridin-2-yl)sulfamoyl)pyridin-2-yl)-4-methylpiperidine-4-carboxylate] | – | –
– | 1240 | 74.1 | 18.9 | Cc1cccc(C)c1-c1nc(NS(=O)(=O)c2cccc(N[C@H]3C[C@@](C)(O)C3)n2)ccc1Cl [Example 285, N-[5-chloro-6-(2,6-dimethylphenyl)pyridin-2-yl]-6-{[(1r,3s)-3-hydroxy-3-methylcyclobutyl]amino}pyridine-2-sulfonamide] | – | –
481 | 2870 | 54.4 | 8.3 | Cc1c(F)cccc1-c1nc(NS(=O)(=O)c2cccc(N3CCC(C)(C(=O)O)CC3)n2)ccc1C(F)(F)F [Example 263, 1-(6-(N-(6-(3-fluoro-2-methylphenyl)-5-(trifluoromethyl)pyridin-2-yl)sulfamoyl)pyridin-2-yl)-4-methylpiperidine-4-carboxylic Acid] | – | –
– | 1880 | 69.6 | 2.4 | Cc1ccccc1-c1nc(NS(=O)(=O)c2cccc(N[C@H]3COCC[C@H]3O)n2)ccc1C(F)(F)F (single isomer, unassigned) [Example 282] | – | –
368 | 2340 | 88.8 | 13.9 | Nc1cccc(S(=O)(=O)Nc2ccc(C(F)(F)F)c(-c3ccc(F)cc3Cl)n2)n1 [Example 41, 6-amino-N-(6-(2-chloro-4-fluorophenyl)-5-(trifluoromethyl)pyridin-2-yl)pyridine-2-sulfonamide] | – | –
421 | 3920 | 63.4 | 8.5 | Cc1ccccc1-c1nc(NS(=O)(=O)c2cccc(N3CCC4(CCC[C@H]4N)CC3)n2)ccc1C(F)(F)F [Example 304, (R)-6-(1-amino-8-azaspiro[4.5]decan-8-yl)-N-(6-(o-tolyl)-5-(trifluoromethyl)pyridin-2-yl)pyridine-2-sulfonamide] | – | –
468 | 2030 | 68.7 | 26.1 | Cc1ccccc1-c1nc(NS(=O)(=O)c2cccc(O[C@@H]3COC[C@@]3(C)O)n2)ccc1C(F)(F)F (single isomer, unassigned) [Example 295] | – | –
626 | 3270 | 43.5 | 12.8 | Cc1ccc(F)cc1-c1nc(NS(=O)(=O)c2cccc(N3CCC(C(=O)O)C3)n2)ccc1C(F)(F)F (centres unmarked) [Example 300, 1-(6-(N-(6-(5-fluoro-2-methylphenyl)-5-(trifluoromethyl)pyridin-2-yl)sulfamoyl)pyridin-2-yl) pyrrolidine-3-carboxylic Acid] | – | –
513 | 1930 | 84.0 | 11.3 | Cc1ccc(F)cc1-c1nc(NS(=O)(=O)c2cccc(N3CC(O)C3)n2)ccc1Cl [Example 234, N-(5-chloro-6-(5-fluoro-2-methylphenyl)pyridin-2-yl)-6-(3-hydroxyazetidin-1-yl)pyridine-2-sulfonamide] | – | –
– | 2080 | 91.9 | 31.6 | Cc1ccc(F)cc1-c1nc(NS(=O)(=O)c2cccc(N3CCN(C)CC3)n2)ccc1C(F)(F)F [Example 179, N-(6-(5-fluoro-2-methylphenyl)-5-(trifluoromethyl)pyridin-2-yl)-6-(4-methylpiperazin-1-yl)pyridine-2-sulfonamide] | – | –
103 | 3810 | 50.5 | 203 | Cc1ccc(F)cc1-c1nc(NS(=O)(=O)c2ccnc(N3CCNCC3)c2)ccc1C(F)(F)F [Example 326, N-(6-(5-fluoro-2-methylphenyl)-5-(trifluoromethyl)pyridin-2-yl)-2-(piperazin-1-yl)pyridine-4-sulfonamide] | – | –
213 | 3380 | 80.0 | 464 | Cc1ccccc1-c1nc(NS(=O)(=O)c2cccc(N3CCNCC3)n2)ccc1Cl [Example 195, N-(5-chloro-6-(o-tolyl)pyridin-2-yl)-6-(piperazin-1-yl)pyridine-2-sulfonamide hydrochloride] | – | –
662 | 2780 | 52.6 | 2.9 | CCOC(=O)C1(C)CCN(c2cccc(S(=O)(=O)Nc3ccc(Cl)c(-c4cc(F)ccc4C)n3)n2)CC1 [Example 256, ethyl 1-(6-(N-(5-chloro-6-(5-fluoro-2-methylphenyl)pyridin-2-yl)sulfamoyl)pyridin-2-yl)-4-methylpiperidine-4-carboxylate] | – | –
269 | 3290 | 60.9 | 52 | Cc1ccc(F)cc1-c1nc(NS(=O)(=O)c2cccc(N3CCC(O)C3C(=O)O)n2)ccc1C(F)(F)F (centres unmarked) [Example 315, 1-(6-(N-(6-(5-fluoro-2-methylphenyl)-5-(trifluoromethyl)pyridin-2-yl)sulfamoyl)pyridin-2-yl)-3-hydroxypyrrolidine-2-carboxylic Acid] | – | –
847 | 1490 | 153.1 | 23.9 | Cc1cccc(C)c1-c1nc(NS(=O)(=O)c2cccc(N[C@H]3C[C@@H](O)C3)n2)ccc1Cl [Example 286, N-[5-chloro-6-(2,6-dimethylphenyl)pyridin-2-yl]-6-{[(1s,3s)-3-hydroxycyclobutyl]amino}pyridine-2-sulfonamide] | – | –
579 | 1350 | 94.3 | 13.6 | Cc1cccc(C)c1-c1nc(NS(=O)(=O)c2cccc(N)n2)ccc1Cl [Example 11, 6-amino-N-(5-chloro-6-(2,6-dimethylphenyl)pyridin-2-yl)pyridine-2-sulfonamide] | – | –
361 | 2740 | 87.7 | 17.6 | O=S(=O)(Nc1ccc(C(F)(F)F)c(-c2ccc(F)cc2Cl)n1)c1cccc(N2CC(O)C2)n1 [Example 225, N-(6-(2-chloro-4-fluorophenyl)-5-(trifluoromethyl)pyridin-2-yl)-6-(3-hydroxyazetidin-1-yl)pyridine-2-sulfonamide] | – | –
413 | 1720 | 49.1 | 18.3 | Cc1ccc(F)cc1-c1nc(NS(=O)(=O)c2ccnc(N3CCOC[C@H]3C)c2)ccc1C(F)(F)F [Example 321, (R)—N-(6-(5-fluoro-2-methylphenyl)-5-(trifluoromethyl)pyridin-2-yl)-2-(3-methylmorpholino)pyridine-4-sulfonamide] | – | –

Structure (SMILES) | Emax [1, 2] [%] | EC50 [1, 3] [nM] | MTECC24 CFHBEC- Amax % (delF508-CFTR) [%] | EC50 (delF508-CFTR) [nM] | EC50 [1] [nM] | Emax ([1]; CFBE41o-) [%]
Cc1ccccc1-c1nc(NS(=O)(=O)c2cccc(N3CC4CCC(C3)N4)n2)ccc1C(F)(F)F [Example 181, 6-(3,8-diazabicyclo[3.2.1]octan-3-yl)-N-(6-(o-tolyl)-5-(trifluoromethyl)pyridin-2-yl)pyridine-2-sulfonamide Hydrochloride] | – | – | 101.5 | 39.8 | 2670 | 454
